Data reported in US20050192279A1, “Pyridazinones as antagonists of alpha4 integrins” (priority 2004, published 2005).

Tests used:
human α4β7 integrin = biological target: T1, human α4β7 integrin (Homo sapiens, UniProt P13612+P26010); experiment: α4β7-K562 Cell Adhesion Assay (α4β7 Mediated Adhesion/MAdCAM-1); format: cell-based; settings: α4β7-K562 cell adhesion to hMAdCAM-1; read-out: α4β7 IC50
T1 construct: expressed in transfected cells; host or cells: K562 cells, stably transfected
T1 sequence (P13612 34-1032): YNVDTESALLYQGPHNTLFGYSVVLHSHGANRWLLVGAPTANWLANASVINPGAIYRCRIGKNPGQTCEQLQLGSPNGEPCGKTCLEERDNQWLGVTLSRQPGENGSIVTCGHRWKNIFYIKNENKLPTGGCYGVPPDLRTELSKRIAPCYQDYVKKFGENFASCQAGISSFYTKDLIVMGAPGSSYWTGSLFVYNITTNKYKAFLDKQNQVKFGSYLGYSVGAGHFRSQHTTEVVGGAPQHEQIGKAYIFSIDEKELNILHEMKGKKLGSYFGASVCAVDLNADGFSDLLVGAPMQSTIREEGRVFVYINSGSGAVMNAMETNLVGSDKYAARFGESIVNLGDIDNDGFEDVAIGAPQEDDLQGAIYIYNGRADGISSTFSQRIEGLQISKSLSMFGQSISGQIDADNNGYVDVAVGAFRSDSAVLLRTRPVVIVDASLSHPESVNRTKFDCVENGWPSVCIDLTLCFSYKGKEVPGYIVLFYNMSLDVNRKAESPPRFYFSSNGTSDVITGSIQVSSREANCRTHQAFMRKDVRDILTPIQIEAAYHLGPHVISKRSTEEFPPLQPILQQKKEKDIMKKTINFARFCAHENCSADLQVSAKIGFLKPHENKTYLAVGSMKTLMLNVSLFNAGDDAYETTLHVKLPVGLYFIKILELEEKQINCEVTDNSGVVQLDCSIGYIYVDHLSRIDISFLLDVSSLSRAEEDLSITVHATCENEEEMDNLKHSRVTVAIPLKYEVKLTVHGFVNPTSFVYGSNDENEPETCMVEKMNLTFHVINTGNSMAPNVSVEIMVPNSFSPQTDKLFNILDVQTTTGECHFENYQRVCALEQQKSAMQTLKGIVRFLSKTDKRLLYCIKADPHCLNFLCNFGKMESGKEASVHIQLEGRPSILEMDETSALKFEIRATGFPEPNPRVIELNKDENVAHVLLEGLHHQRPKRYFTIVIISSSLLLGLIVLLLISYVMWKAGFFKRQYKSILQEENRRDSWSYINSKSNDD
T1 sequence (P26010 20-798): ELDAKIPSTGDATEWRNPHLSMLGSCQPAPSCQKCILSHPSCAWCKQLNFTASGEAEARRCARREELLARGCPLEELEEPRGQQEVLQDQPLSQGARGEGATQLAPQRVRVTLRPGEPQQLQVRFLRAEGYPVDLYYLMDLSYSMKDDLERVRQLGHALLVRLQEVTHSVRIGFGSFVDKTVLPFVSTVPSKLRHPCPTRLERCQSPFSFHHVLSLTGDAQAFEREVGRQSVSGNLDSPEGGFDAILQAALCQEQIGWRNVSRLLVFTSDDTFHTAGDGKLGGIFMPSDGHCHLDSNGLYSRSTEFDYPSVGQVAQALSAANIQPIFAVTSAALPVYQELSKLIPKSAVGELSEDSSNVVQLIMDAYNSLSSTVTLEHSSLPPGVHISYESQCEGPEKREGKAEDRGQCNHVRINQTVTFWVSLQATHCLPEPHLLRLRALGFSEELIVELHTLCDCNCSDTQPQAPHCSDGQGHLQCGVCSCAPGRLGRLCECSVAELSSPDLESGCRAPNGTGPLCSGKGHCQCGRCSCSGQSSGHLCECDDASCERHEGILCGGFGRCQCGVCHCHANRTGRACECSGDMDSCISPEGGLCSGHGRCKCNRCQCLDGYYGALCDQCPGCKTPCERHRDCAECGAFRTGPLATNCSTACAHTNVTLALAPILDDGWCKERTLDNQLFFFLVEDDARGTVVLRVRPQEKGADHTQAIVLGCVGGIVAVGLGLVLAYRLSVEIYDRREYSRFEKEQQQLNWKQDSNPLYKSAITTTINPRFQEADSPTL
Protocol: α4β7-K562 Cell Adhesion Assay (α4β7 Mediated Adhesion/MAdCAM-1)
M2 anti-FLAG Antibody Coated 96-well plates (Sigma) were coated for 1 hour at 4° C. with 2-8 μl/well recombinant FLAG-hMAdCAM-1 contained in 100 μL of Dulbecco's PBS, pH 7.4, with 1% BSA and 1 mM Mn ^+2 (PBS-BSA-Mn). Plates were washed once with PBS-BSA-Mn. Buffer was removed and compounds to be tested (50 μL) were added at 2× concentration. Stably transfected K562 cells expressing human α4β7 integrin, (50 μL at 2×10^6/mL) that had been labeled with 100 μg/ml carboxymethyl fluorescein diacetate succinimidyl ester (CFDA-SE; Molecular Probes) for 15 min at 37° C. were added to each well and allowed to adhere for 1 h at room temperature. Plates were washed 4× in PBS-BSA-Mn and then cells were lysed for 2 minutes by addtion of 100 μL of PBS without Ca, Mg supplemented with 0.1 M NaOH.

α4β1 = biological target: T2, α4β1 (Homo sapiens, UniProt P05556+P13612); experiment: Ramos Cell Adhesion Assay (α4β1 Mediated Adhesion/VCAM-1); format: cell-based; settings: Ramos cell adhesion to hVCAM-1; read-out: α4β1 IC50
T2 construct: Ramos Cell Adhesion Assay (α4β1 Mediated Adhesion/VCAM-1); endogenous in cells; host or cells: Ramos cells
T2 sequence (P05556 21-798, one chain of several): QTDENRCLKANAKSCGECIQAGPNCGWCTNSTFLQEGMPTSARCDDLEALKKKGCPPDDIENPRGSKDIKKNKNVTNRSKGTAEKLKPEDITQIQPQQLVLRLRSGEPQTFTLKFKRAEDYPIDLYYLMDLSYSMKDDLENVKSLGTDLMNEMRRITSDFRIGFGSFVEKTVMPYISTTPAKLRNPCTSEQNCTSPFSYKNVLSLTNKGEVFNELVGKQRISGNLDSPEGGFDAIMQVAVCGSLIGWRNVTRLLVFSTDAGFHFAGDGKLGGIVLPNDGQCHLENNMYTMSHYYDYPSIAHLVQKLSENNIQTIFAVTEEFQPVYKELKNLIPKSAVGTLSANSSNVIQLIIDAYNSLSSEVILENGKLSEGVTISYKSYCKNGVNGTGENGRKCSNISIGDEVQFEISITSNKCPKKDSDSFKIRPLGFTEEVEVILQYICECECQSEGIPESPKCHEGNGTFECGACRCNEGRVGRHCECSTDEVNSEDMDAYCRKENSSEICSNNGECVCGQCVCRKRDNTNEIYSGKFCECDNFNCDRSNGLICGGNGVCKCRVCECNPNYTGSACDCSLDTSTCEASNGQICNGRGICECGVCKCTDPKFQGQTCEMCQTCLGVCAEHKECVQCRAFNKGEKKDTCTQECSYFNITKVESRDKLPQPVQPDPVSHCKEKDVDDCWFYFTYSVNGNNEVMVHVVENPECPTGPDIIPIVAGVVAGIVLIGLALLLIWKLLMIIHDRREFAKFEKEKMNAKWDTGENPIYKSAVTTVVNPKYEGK
Protocol: Ramos Cell Adhesion Assay (α4β1 Mediated Adhesion/VCAM-1)
Immulon 96 well plates (Dynex) were coated with 100 μL recombinant hVCAM-1 at 4.0 μg/mL in 0.05 M NaCO3 buffer pH 9.0 overnight at 4° C. (R&D Systems). Plates were washed 2 times in PBS with 1% BSA and blocked for 1 h @ room temperature in this buffer. PBS was removed and compounds to be tested (50 μL) were added at 2× concentration. Ramos cells, (50 μL at 2×10^6/mL) labeled with 5 μM Calcein AM (Molecular Probes) for 1 h at 37° C., were added to each well and allowed to adhere for 1 h at room temperature. Plates were washed 4× in PBS+1% BSA and cells were lysed for 15 minutes in 100 μL of 1 M Tris pH 8.0 with 1% SDS.

Compound | IC50 (human α4β7 integrin) | IC50 (α4β1)
COc1cnn(C)c(=O)c1-c1ccc(C[C@H](NC(=O)C2(n3c(C)ccc3C)CC2)C(=O)O)cc1 [Cpd 80] | 228 nM | > 5000 nM
Cn1ncc(OCc2ccccc2)c(-c2ccc(C[C@H](NC(=O)c3c(Cl)cccc3Cl)C(=O)O)cc2)c1=O [Cpd 52] | 17 nM | 663 nM
COc1cnn(C)c(=O)c1-c1ccc(CC(NC(=O)c2c(Cl)cccc2Cl)C(=O)OCCO)cc1 (centres unmarked) [Cpd 97, 2-(2,6-Dichloro-benzoylamino)-3-[4-(5-methoxy-2-methyl-3-oxo-2,3-dihydro-pyridazin-4-yl)-phenyl]-propionic acid 2-hydroxy-ethyl ester] | 58 nM | 3240 nM
Cn1ncc(O)c(-c2ccc(C[C@H](NC(=O)c3c(Cl)cncc3Cl)C(=O)O)cc2)c1=O [Cpd 62] | 21 nM | 40 nM
COc1cnn(C)c(=O)c1-c1ccc(C[C@H](NC(=O)c2ccc[nH]2)C(=O)O)cc1 [Cpd 84] | 41 nM | > 5000 nM
COc1cnn(C)c(=O)c1-c1ccc(C[C@H](NC(=O)c2c(Cl)cccc2Cl)C(=O)OCCN2CCOCC2)cc1 [Cpd 118] | 103 nM | 1290 nM
COc1cnn(C)c(=O)c1-c1ccc(C[C@H](NC(=O)[C@@H](C(C)C)N(C)C(=O)Cc2ccsc2)C(=O)O)cc1 [Cpd 19] | 3 nM | 44 nM
COc1cnn(C)c(=O)c1-c1ccc(C[C@H](NC(=O)[C@H](NC2CCCCC2)C(C)C)C(=O)O)cc1 [Cpd 28] | 5 nM | 2620 nM
CNC(C(=O)NC(Cc1ccc(-c2c(OC)cnn(C)c2=O)cc1)C(=O)O)C(C)C (single isomer, unassigned) [Cpd 123] | 118 nM | > 5000 nM
COc1cnn(C)c(=O)c1-c1ccc(C[C@H](NC(=O)c2c(Cl)cccc2Cl)C(=O)OCCCl)cc1 [Cpd 75] | 28 nM | > 5000 nM
COc1cnn(C)c(=O)c1-c1ccc(CC(NC(=O)C(C(C)C)n2cccc2)C(=O)O)cc1 (centres unmarked) [Cpd 87, 3-[4-(5-Methoxy-2-methyl-3-oxo-2,3-dihydro-pyridazin-4-yl)-phenyl]-2-(3-methyl-2-pyrrol-1-yl-butyrylamino)-propionic acid] | 44 nM | 278 nM
COc1cnn(C)c(=O)c1-c1ccc(CC(NC(=O)C(NC(=O)Cc2ccsc2)C(C)C)C(=O)O)cc1 (centres unmarked) [Cpd 107, 3-[4-(5-Methoxy-2-methyl-3-oxo-2,3-dihydro-pyridazin-4-yl)-phenyl]-2-[3-methyl-2-(2-thiophen-3-yl-acetylamino)-butyrylamino]-propionic acid] | 71 nM | 306 nM
COc1cnn(C)c(=O)c1-c1ccc(C[C@H](NC(=O)C23CCC(CC2)CN3C(=O)CCc2ccco2)C(=O)O)cc1 [Cpd 115] | 94 nM | 63.5 nM
Cn1ncc(OCC2CC2)c(-c2ccc(C[C@H](NC(=O)c3c(Cl)cccc3Cl)C(=O)O)cc2)c1=O [Cpd 86, (S)-3-[4-(5-Cyclopropylmethoxy-2-methyl-3-oxo-2,3-dihydro-pyridazin-4-yl)-phenyl]-2-(2,6-dichloro-benzoylamino)-propionic acid] | 44 nM | 212 nM
COc1cnn(C)c(=O)c1-c1ccc(C[C@H](NC(=O)[C@@H](C)N(C)C(=O)Cc2ccsc2)C(=O)O)cc1 [Cpd 50] | 14 nM | 229 nM
COc1cnn(C)c(=O)c1-c1ccc(C[C@H](NC(=O)c2c(Cl)cccc2Cl)C(=O)OCCN(C)C)cc1 [Cpd 34] | 8 nM | 250 nM
COc1cnn(C)c(=O)c1-c1ccc(C[C@H](NC(=O)[C@@H]2C3CCC(CC3)N2C(=O)OCc2ccccc2)C(=O)O)cc1 [Cpd 103] | 67 nM | 629 nM

Continued, values first:

IC50 (human α4β7 integrin) | IC50 (α4β1) | Compound
204 nM | 508 nM | COc1cnn(C)c(=O)c1-c1ccc(C[C@H](NC(=O)c2c(C)cc(C)nc2N)C(=O)O)cc1 [Cpd 138]
127 nM | 2460 nM | COc1cnn(C)c(=O)c1-c1ccc(C[C@H](NC(=O)C23CCC(CC2)CN3C(=O)OC(C)(C)C)C(=O)O)cc1 [Cpd 126]
200 nM | 962 nM | COc1cnn(C)c(=O)c1-c1ccc(C[C@H](NC(=O)c2ccc(C(=O)O)cc2)C(=O)O)cc1 [Cpd 137]
261 nM | > 5000 nM | Cn1ncc(-n2nccc2-c2cccs2)c(-c2ccc(C[C@H](NC(=O)c3c(Cl)cccc3Cl)C(=O)O)cc2)c1=O [Cpd 148]
330 nM | > 5000 nM | COc1cnn(CCN2CCOCC2)c(=O)c1-c1ccc(C[C@H](NC(=O)[C@@H](NC(=O)OC(C)(C)C)[C@@H](C)O)C(=O)O)cc1 [Cpd 154]
228 nM | 319 nM | COc1cnn(C)c(=O)c1-c1ccc(C[C@H](NC(=O)C23CCC(CC2)CN3C(=O)CCC2CCNCC2)C(=O)O)cc1 [Cpd 139]
244 nM | > 1000 nM | COc1cnn(C)c(=O)c1-c1ccc(C[C@H](NC(=O)C(=O)C(C)C)C(=O)O)cc1 [Cpd 143]
89 nM | > 5000 nM | COc1cnn(C)c(=O)c1-c1ccc(C[C@H](NC(=O)C(C)(C)NC(N)=O)C(=O)O)cc1 [Cpd 229]
147 nM | > 1000 nM | COc1ccc2cc(C(=O)N[C@@H](Cc3ccc(-c4c(OC)cnn(C)c4=O)cc3)C(=O)O)c(=O)oc2c1 [Cpd 130]
123 nM | 112 nM | COCCC(=O)N1C2CCC(CC2)[C@H]1C(=O)N[C@@H](Cc1ccc(-c2c(OC)cnn(C)c2=O)cc1)C(=O)O [Cpd 125]
14 nM | > 5000 nM | COc1cnn(C)c(=O)c1-c1ccc(C[C@H](NC(=O)C2(NC3CCC4(CC3)OCCO4)CC2)C(=O)O)cc1 [Cpd 224]
353 nM | > 5000 nM | COc1cnn(C)c(=O)c1-c1ccc(C[C@H](NC(=O)CN(C)C(=O)OC(C)(C)C)C(=O)O)cc1 [Cpd 157]
363 nM | > 5000 nM | COc1cnn(C)c(=O)c1-c1ccc(C[C@H](NC(=O)C(N)C(C)C)C(=O)O)cc1 (some centres unmarked) [Cpd 159]
480 nM | > 5000 nM | COc1cnn(CCN2CCOCC2)c(=O)c1-c1ccc(C[C@H](NC(=O)[C@H](NC(=O)OC(C)(C)C)[C@H](C)O)C(=O)O)cc1 [Cpd 167]
